Measured values reported in PubChem BioAssay (NCI).
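Five compound concentrations were applied to cells in 96-well plates for 48 hours; endpoints were derived by simple linear interpolation of the resulting dose-response curve. TGI denotes the concentration required for complete inhibition of growth.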

Key:
Assay in all cases: NCI anticancer screen, dose series, 48 h
[1] = tested on: MALME-3M melanoma
[2] = tested on: TK-10 renal
[3] = tested on: MDA-MB-231 breast
[4] = tested on: SNB-75 CNS
[5] = tested on: 786-0 renal
[6] = tested on: KM12 colon
[7] = tested on: EKVX NSCLC
[8] = tested on: HT29 colon
[9] = tested on: CAKI-1 renal
[10] = tested on: A549 NSCLC
[11] = tested on: MOLT-4 leukemia
[12] = tested on: HCT-116 colon
[13] = tested on: RXF 393 renal
[14] = tested on: HL-60(TB) leukemia

CC(C)[Si](OCC/C=C/C1CCC(=O)C1C(O)C1CCCCC1)(C(C)C)C(C)C (centres undefined)
TGI [1]: 29.1 µM
TGI [2]: 32.7 µM
TGI [3]: 36.3 µM
TGI [4]: 30.1 µM
TGI [5]: 29.3 µM
TGI [6]: 30 µM
TGI [7]: 28.9 µM
TGI [8]: 26.2 µM
TGI [9]: 28.5 µM
TGI [10]: 28.7 µM
TGI [11]: 30 µM
TGI [12]: 28 µM
TGI [13]: 26.4 µM

BrC12C3C4C5C(C(C43)C13OCCO3)C52 (centres undefined)
TGI [1]: > 100 µM
TGI [2]: > 100 µM
TGI [4]: > 100 µM
TGI [5]: > 100 µM
TGI [6]: > 100 µM
TGI [14]: > 100 µM
TGI [7]: > 100 µM
TGI [8]: > 100 µM
TGI [10]: > 100 µM
TGI [11]: > 100 µM
TGI [12]: > 100 µM
TGI [13]: > 100 µM

CCOC(=O)c1c(-c2ccc(Cl)cc2)c(C#N)c(=S)n(C2OC(CO)C(O)C(O)C2O)c1-c1ccccc1 (centres undefined)
TGI [1]: > 100 µM
TGI [2]: 84 µM
TGI [3]: 75.9 µM
TGI [4]: 87.3 µM
TGI [5]: 75.1 µM
TGI [6]: > 100 µM
TGI [8]: 36.2 µM
TGI [9]: 82.6 µM
TGI [10]: > 100 µM
TGI [11]: 46.7 µM
TGI [12]: 35.3 µM
TGI [13]: 47.1 µM

CCOC(=O)C1=C(C)C2C3C(=O)NC(=O)C3C1(C)C1C(=O)NC(=O)C21 (centres undefined)
TGI [1]: > 100 µM
TGI [2]: > 100 µM
TGI [4]: > 100 µM
TGI [5]: > 100 µM
TGI [6]: > 100 µM
TGI [14]: > 100 µM
TGI [7]: > 100 µM
TGI [8]: > 100 µM
TGI [10]: > 100 µM
TGI [11]: > 100 µM
TGI [12]: > 100 µM
TGI [13]: > 100 µM

Clc1ccc2c(Cl)ncnc2c1I
TGI [1]: > 100 µM
TGI [2]: > 100 µM
TGI [4]: 75 µM
TGI [5]: > 100 µM
TGI [6]: > 100 µM
TGI [14]: 44.6 µM
TGI [7]: 99.4 µM
TGI [8]: > 100 µM
TGI [9]: > 100 µM
TGI [10]: > 100 µM
TGI [11]: 61.4 µM
TGI [12]: > 100 µM
TGI [13]: > 100 µM

COc1c(C(CC(C)C)OC(C)=O)ccc2c1C(=O)OCc1cc(C)cc(O)c1O2 (centres undefined)
TGI [1]: 29.8 µM
TGI [2]: 31.8 µM
TGI [4]: 42.1 µM
TGI [5]: 29.2 µM
TGI [6]: 35.4 µM
TGI [14]: > 100 µM
TGI [7]: 24.1 µM
TGI [8]: 32.2 µM
TGI [9]: 32.2 µM
TGI [10]: 25.8 µM
TGI [11]: > 100 µM
TGI [12]: 25.1 µM
TGI [13]: 34 µM

Cc1c(C(=O)Nc2ccc(Cl)c(C(F)(F)F)c2)oc2cc(O)ccc2/c1=N\NC(N)=S
TGI [1]: > 100 µM
TGI [2]: > 100 µM
TGI [4]: > 100 µM
TGI [5]: > 100 µM
TGI [6]: > 100 µM
TGI [14]: > 100 µM
TGI [7]: > 100 µM
TGI [8]: > 100 µM
TGI [9]: > 100 µM
TGI [10]: > 100 µM
TGI [11]: > 100 µM
TGI [12]: > 100 µM
TGI [13]: > 100 µM

O=C(O)c1ccccc1C(=O)OCC1CCCN2CCCCC12 (centres undefined)
TGI [1]: > 100 µM
TGI [2]: > 100 µM
TGI [3]: > 100 µM
TGI [4]: > 100 µM
TGI [5]: > 100 µM
TGI [6]: > 100 µM
TGI [7]: > 100 µM
TGI [8]: > 100 µM
TGI [9]: > 100 µM
TGI [10]: > 100 µM
TGI [11]: > 100 µM
TGI [12]: > 100 µM
TGI [13]: > 100 µM

CSC1=N/C(=C\c2ccc(Cl)cc2)C(=O)N1CN1CCOCC1
TGI [1]: > 100 µM
TGI [2]: > 100 µM
TGI [3]: > 100 µM
TGI [4]: > 100 µM
TGI [5]: > 100 µM
TGI [6]: > 100 µM
TGI [7]: > 100 µM
TGI [8]: 94.4 µM
TGI [10]: > 100 µM
TGI [11]: > 100 µM
TGI [12]: > 100 µM

C=CCNC(NCC=C)=C(C(Cl)=C(Cl)Cl)[N+](=O)[O-]
TGI [1]: 30.7 µM
TGI [3]: > 100 µM
TGI [4]: > 100 µM
TGI [5]: > 100 µM
TGI [6]: > 100 µM
TGI [7]: > 100 µM
TGI [8]: > 100 µM
TGI [9]: > 100 µM
TGI [10]: > 100 µM
TGI [11]: 87.9 µM
TGI [12]: > 100 µM

C=C(CO)[C@H]1CC/C(C)=C/CC/C(C)=C/C/C=C(\C)[C@H](O)C1
TGI [2]: 47.7 µM
TGI [3]: 56.6 µM
TGI [4]: 78.9 µM
TGI [5]: 57.5 µM
TGI [6]: 29.5 µM
TGI [7]: > 100 µM
TGI [8]: 35 µM
TGI [9]: 75.1 µM
TGI [10]: > 100 µM
TGI [11]: 44.2 µM
TGI [12]: > 100 µM
TGI [13]: 42.1 µM

CN(C)c1cccc(-c2cc(=O)c3cc4c(cc3[nH]2)OCO4)c1
TGI [2]: > 100 µM
TGI [5]: 30.1 µM
TGI [6]: 1.46 µM
TGI [14]: 2.23 µM
TGI [7]: > 100 µM
TGI [8]: > 100 µM
TGI [9]: > 100 µM
TGI [11]: > 100 µM
TGI [13]: 0.859 µM

Cc1cccc(NC(=O)CSc2nnc(Cc3ccccc3)o2)c1
TGI [1]: > 100 µM
TGI [2]: > 100 µM
TGI [4]: > 100 µM
TGI [5]: > 100 µM
TGI [6]: > 100 µM
TGI [14]: > 100 µM
TGI [7]: > 100 µM
TGI [8]: > 100 µM
TGI [9]: > 100 µM
TGI [10]: > 100 µM
TGI [11]: > 100 µM
TGI [12]: > 100 µM
TGI [13]: > 100 µM

CC(C)CC(NC(=O)OCc1ccccc1)C(=O)NCCCCC(N)C(=O)NC(CCCCNC(=O)C(CC(C)C)NC(=O)OCc1ccccc1)C(=O)NC(CCCCNC(=O)C(CC(C)C)NC(=O)OCc1ccccc1)C(=O)NC(CCCCNC(=O)C(CC(C)C)NC(=O)OCc1ccccc1)C(=O)NC(CCCCNC(=O)C(CC(C)C)NC(=O)OCc1ccccc1)C(=O)NC(CCCCNC(=O)C(CC(C)C)NC(=O)OCc1ccccc1)C(=O)O (centres undefined)
TGI [1]: > 100 µM
TGI [2]: > 100 µM
TGI [3]: > 100 µM
TGI [5]: > 100 µM
TGI [14]: > 100 µM
TGI [8]: > 100 µM
TGI [10]: > 100 µM
TGI [11]: > 100 µM
TGI [12]: > 100 µM

COCC1OCCN1C (centres undefined)
TGI [1]: > 100 µM
TGI [2]: > 100 µM
TGI [3]: > 100 µM
TGI [4]: > 100 µM
TGI [5]: > 100 µM
TGI [6]: > 100 µM
TGI [7]: > 100 µM
TGI [8]: > 100 µM
TGI [9]: > 100 µM
TGI [10]: > 100 µM
TGI [11]: > 100 µM
TGI [12]: > 100 µM
TGI [13]: > 100 µM

CCCCC1(OC(=O)CCC(=O)O)CCC2(CCC(C)C(C/C=C(C)/C=C/C(O)C(C)/C=C/C(=O)O)O2)OC1CC/C(C)=C/C(=O)O (centres undefined)
TGI [1]: 20.3 µM
TGI [2]: 58.5 µM
TGI [4]: 6.74 µM
TGI [5]: 14.3 µM
TGI [6]: 11.8 µM
TGI [14]: 24.5 µM
TGI [7]: 25.7 µM
TGI [8]: 43.6 µM
TGI [9]: 15.3 µM
TGI [10]: 36.6 µM
TGI [11]: 26.9 µM
TGI [12]: > 50.4 µM
TGI [13]: 4.58 µM

C1=Cc2nc1c(-c1ccccc1)c1ccc([n-]1)c(-c1ccccc1)c1nc(c(-c3ccccc3)c3ccc([n-]3)c2-c2ccccc2)C=C1.[Zn+2]
TGI [1]: > 100 µM
TGI [2]: > 100 µM
TGI [4]: > 100 µM
TGI [5]: > 100 µM
TGI [6]: > 100 µM
TGI [14]: > 100 µM
TGI [7]: > 100 µM
TGI [8]: > 100 µM
TGI [9]: > 100 µM
TGI [10]: > 100 µM
TGI [11]: > 100 µM
TGI [12]: > 100 µM
